Source: US20220016048A1, “CANNABIDIOL-TYPE CANNABINOID COMPOUND” (GW Research Limited, priority 2018, published 2022)
“Also recorded” adds a separate entry of the source.

How the values were obtained:
DNA damage in the liver = assay: Alkaline Comet assay; type: in vivo, rat
Protocol: (§1) CBD-C4 was tested for its potential to induce micronuclei (MN) in the polychromatic erythrocytes (PCE) of the bone marrow of treated rats to induce DNA damage in the liver of the same animals.
(§2) CBD-C4 was administered at a dose of 125, 250 and 500 mg/kg/day during this study. Vehicle and a positive control of ethyl methanesulfonate (EMS) at a dose of 150 mg/kg/day were tested alongside the CBD-C4.
(§3) A range finding study was performed on 9 male young adult out-bred Sprague Dawley rats justifying the chosen dose levels of CBD-C4 used during the study.
(§4) Animals were allocated into groups of six with the exception of the positive control which comprised three animals.
(§5) Rats were dosed by oral gavage with test article suspended in sesame oil, vehicle (sesame oil) or positive control.
(§6) Blood samples were taken for bioanalysis and tissue samples were removed from animals at necropsy from the liver and femur.
(§7) Bone marrow sampling, micronucleus slide preparation and comet cell suspensions were undertaken to determine level of toxicity of CBD-C4.

[1] = tested on: Salmonella typhimurium (TA98, TA100, TA1535, TA1537 and TA102); assay: Ames test; type: cell-based; conditions: absence and presence of S-9
Protocol: The aim of this study was to evaluate the potential mutagenic activity of CBD-C4 by examining its ability to revert five histidine-requiring strains of Salmonella typhimurium in the absence and presence of a rat liver metabolising system (S-9).
Control treatments were performed with 2-nitrofluorene (2NF) at a final concentration of 5 μg/plate; Sodium azide (NaN3) at a final concentration of 2 μg/plate; 9-aminoacridine (AAC) at a final concentration of 50 μg/plate; Mitomycin C (MMC) at a final concentration of 0.2 μg/plate; Benzo[a]pyrene (B[a]P) at a final concentration of 10 μg/plate; and 2-aminoanthracene (AAN) at a final concentration of 5 and 20 μg/plate.
Treatments were carried out both in the absence and presence of S-9 by addition of either buffer solution or 10% S-9 mix respectively.
Five strains of Salmonella typhimurium bacteria (TA98, TA100, TA1535, TA1537 and TA102) were used in this study.
Bacteria were cultured at 37±1° C. for 10 hours in nutrient broth, containing ampicillin or ampicillin and tetracycline as appropriate, to provide bacterial cultures in the range of approximately 10^8 to 10^9 cells/mL, based on cell count data from testing of each strain batch. […]
Following incubation, these plates were examined for evidence of toxicity to the background lawn, and where possible revertant colonies were counted. […]

[2] = Toxicokinetic evaluation in embryo-foetal development study; type: in vivo, rat
Protocol: Three groups of 20 time-mated female Wistar (Han) rats were given CBD-C4 once daily by the oral (gavage) route from Day 6 to Day 17 of gestation at dose levels of 1, 10 or 100 mg/kg/day (at a constant dose volume of 5 mL/kg), to cover the period of organogenesis.
Blood samples were taken for toxicokinetic evaluation at pre-dose, 1, 2, 4, 6 and 24 hours after dosing on Days 6 and 17 of gestation. Clinical observations, body weight and food consumption were recorded. On Day 21 of gestation (GD 21) the females were euthanised, and the progress and outcome of pregnancy was evaluated.

mouse model of seizure = assay: maximal electroshock (MES) test in the mouse; type: in vivo; conditions: for decrease in the number of mice showing tonic convulsions, as compared with vehicle controls: p<0.001
Protocol: Mice were administered MES (50 mA, rectangular current: 0.6 ms pulse width, 0.4 s duration, 50 Hz) via corneal electrodes connected to a constant current shock generator (Ugo Basile: type 7801). The number of tonic convulsions was recorded.
Twelve mice were studied per group. The test was performed blind.
The test substance, CBD-C4, was evaluated at 5 doses (3, 10, 30, 100 and 200 mg/kg), administered i.p. 60 minutes before MES, and compared with a vehicle control group (administered under the same experimental conditions).
Diazepam (2 mg/kg i.p.), administered i.p. 30 minutes before MES, was used as a reference substance and was compared with a vehicle group (administered i.p. 60 minutes before MES).
Data was analysed by comparing treated groups with the appropriate vehicle control using Fisher's Exact Probability tests.

[3] = tested on: polychromatic erythrocytes (PCE) of the bone marrow; assay: Rat micronucleus assay; type: in vivo
Protocol: as §1, §2, §3, §4, §5, §6, §7

Rat micronucleus assay = type: in vivo; conditions: Sprague Dawley, rat, in vivo; male rats, oral gavage; read-out: estimate of the maximum tolerated dose
Protocol: as §1, §2, §3, §4, §5, §6, §7

[4] = 125, 250 and 500 mg/kg/day oral gavage

C=C(C)[C@@H]1CCC(C)=C[C@H]1c1c(O)cc(CCCC)cc1O [CBD-C4, (1′R,2′R)-4-butyl-5′-methyl-2′-(prop-1-en-2-yl)-1′,2′,3′,4′-tetrahydro-[1,1′-biphenyl]-2,6-diol]
% hedgehogs in liver (DNA damage in the liver; [4]): no dose-related increase | group mean tail intensity and tail moment (DNA damage in the liver; all groups, 125, 250 and 500 mg/kg/day oral gavage): comparable with the group mean vehicle control data | DNA damage in the liver (Comet assay) (DNA damage in the liver; up to 500 mg/kg/day oral gavage): did not induce DNA damage; also recorded: No genotoxicity was observed | increases in revertant numbers vs concurrent vehicle control ([1]; 5-5000 μg/plate, all test strains): no increases in revertant numbers | mutagenic activity ([1]; five strains): No genotoxicity was observed; also recorded: no evidence of any CBD-C4 mutagenic activity; also recorded: does not induce mutation | extent of accumulation (exposure after 12 daily doses vs single dose) ([2]; 1 mg/kg/day): approximately 5 fold | extent of accumulation (exposure after 12 daily doses vs single dose) ([2]; 100 mg/kg/day): ~2 fold | time of maximum plasma concentration post dose ([2]; GD 6, 1 mg/kg/day oral): 2 h | time of maximum plasma concentration post dose ([2]; GD 6, higher dose levels (10, 100 mg/kg/day) oral): 6 h | time of maximum plasma concentration post dose ([2]; GD 17, after 12 daily doses, all dose levels): 4 h | plasma levels 24 hours after dosing ([2]; both higher dose levels (10, 100 mg/kg/day)): quantifiable levels of CBD-C4 remained in plasma | increases in exposure (Cmax and AUC(0-t)) relative to the increase in dose ([2]; both sampling occasions (GD 6, GD 17)): supra-proportional | time to complete elimination from plasma after dosing ([2]; lowest dose level (1 mg/kg/day), both sampling occasions): ≤ 24 h | decrease in the number of mice showing tonic convulsions, as compared with vehicle controls (mouse model of seizure; 100 mg/kg i.p. 60 minutes before MES): −100% | decrease in the number of mice showing tonic convulsions, as compared with vehicle controls (mouse model of seizure; 200 mg/kg i.p. 60 minutes before MES): −100% | effect on number of mice showing tonic convulsions (mouse model of seizure; lower doses 3, 10 and 30 mg/kg i.p. 60 minutes before MES): No effects | bone marrow toxicity [3, 4]: no evidence of test article related bone marrow toxicity | micronucleus PCE frequencies ([3]; all doses (125, 250 and 500 mg/kg/day) oral gavage): comparable with the vehicle control group | induction of micronuclei in polychromatic erythrocytes of the bone marrow ([3]; male rats treated up to 500 mg/kg/day): did not induce an increase in micronuclei; also recorded: No genotoxicity was observed | MTD (Rat micronucleus assay): ~500 mg/kg/day
